The text below walks through data of DBAASP.

Some test systems named below: Streptococcus mutans; Bacillus subtilis 168; Escherichia coli B; Pseudomonas aeruginosa; Staphylococcus aureus; Escherichia coli BW25113; Bacillus subtilis; Escherichia coli ML-35p.
What all share (assay): ≥ marks a high value that may be exact or a test limit, other limits are often not marked, values filed in µg/mL are converted to µM
The subject of test [1] is Corynebacterium glutamicum ATCC 13032.
Test [2] deals with Escherichia coli ATCC 25922.
The subject of test [3] is Pseudomonas aeruginosa ATCC 27853.
In test [4] the test system is Staphylococcus aureus ATCC 9144.
In test [5] the test system is Candida albicans NCPF 1467.
Test [6] has as its system Escherichia coli NCTC 10418.
The subject of test [7] is Staphylococcus aureus NCTC 10788.
The test system of test [8] is Candida albicans ATCC 2002.
Test [9] deals with Staphylococcus aureus ATCC 25923.
Test [10] concerns Staphylococcus aureus ATCC 43300.
Test [11] deals with Pseudomonas aeruginosa PAO1.
In test [12] the test system is Staphylococcus aureus ATCC 2592.

Each structure is given as a SMILES string. Converted amounts (≈) assume the structure as drawn. A value given as a limit tells only on which side of the number the result lay.

On to `CC(C)[C@H](NC(=O)[C@H](CCCCN)NC(=O)[C@H](C)NC(=O)[C@@H](NC(=O)[C@@H](NC(=O)[C@H](CCCN=C(N)N)NC(=O)[C@H](CCCN=C(N)N)NC(=O)[C@H](Cc1c[nH]c2ccccc12)NC(=O)[C@H](Cc1c[nH]c2ccccc12)NC(=O)CN)[C@@H](C)O)C(C)C)C(=O)N[C@@H](CCCN=C(N)N)C(=O)N[C@@H](CC(N)=O)C(N)=O` [GWWRRTVAKVRN], for which the MIC in test [1] is 1.6 µM (≈ 2.44 µg/mL); in test [2], 6.3 µM (≈ 9.63 µg/mL); in test [3], 6.3 µM (≈ 9.63 µg/mL); in test [4], at least 50 µM.

For the molecule `NC(=O)[C@H](Cc1ccccc1)NC(=O)[C@H](Cc1c[nH]c2ccccc12)NC(=O)[C@H](Cc1c[nH]c2ccccc12)NC(=O)[C@H](Cc1c[nH]c2ccccc12)NC(=O)[C@H](CCCN=C(N)N)NC(=O)[C@H](CCCN=C(N)N)NC(=O)[C@H](CCCN=C(N)N)NC(=O)CNC(=O)CNC(=O)CNC(=O)[C@H](Cc1ccccc1)NC(=O)[C@H](Cc1c[nH]c2ccccc12)NC(=O)[C@H](Cc1c[nH]c2ccccc12)NC(=O)[C@H](Cc1c[nH]c2ccccc12)NC(=O)[C@H](CCCN=C(N)N)NC(=O)[C@H](CCCN=C(N)N)NC(=O)[C@@H](N)CCCN=C(N)N` [RRRWWWFGGGRRRWWWF], the MIC against Streptococcus mutans stood at 6.3 µM (≈ 16 µg/mL).

Take `CC[C@H](C)[C@H](NC(=O)[C@H](CO)NC(=O)[C@H](CC(C)C)NC(=O)[C@H](Cc1ccccc1)NC(=O)CN)C(=O)N[C@@H](CC(C)C)C(=O)N[C@@H](CCCCN)C(=O)N[C@@H](CCCCN)C(=O)N[C@H](C(=O)N[C@@H](CC(C)C)C(N)=O)C(C)C` [GFLSILKKVL]: the MIC against Bacillus subtilis 168 amounted to 2.9 µM (≈ 3.24 µg/mL); in the test with Escherichia coli B it was 9.1 µM (≈ 10.2 µg/mL); in the test with Pseudomonas aeruginosa, 59 µM (≈ 65.9 µg/mL); with Staphylococcus aureus, 10.9 µM (≈ 12.2 µg/mL).

On to `CC[C@H](C)[C@H](NC(=O)[C@H](C)NC(=O)[C@@H]1CCCN1C(=O)[C@H](CC(C)C)NC(=O)[C@@H](N)Cc1ccccc1)C(=O)N[C@@H](C)C(=O)NCC(=O)N[C@H](C(=O)N[C@@H](C)C(=O)N[C@@H](C)C(=O)N[C@@H](CCCCN)C(=O)N[C@@H](Cc1ccccc1)C(=O)N[C@@H](CC(C)C)C(=O)N1CCC[C@H]1C(=O)N[C@@H](CCCCN)C(=O)N[C@H](C(=O)N[C@@H](Cc1ccccc1)C(=O)N[C@H]1CSSC[C@@H](C(=O)O)NC(=O)[C@H](CCCCN)NC(=O)[C@H](CCCCN)NC(=O)[C@H]([C@@H](C)O)NC(=O)[C@H]([C@@H](C)CC)NC(=O)[C@H](C)NC1=O)[C@@H](C)CC)C(C)C` [FLPAIAGVAAKFLPKIFCAITKKC], for which the values for the MIC in test [5], in test [6] and in [7] were 3.14 µM (≈ 8 µg/mL), 25.1 µM (≈ 64 µg/mL) and 6.28 µM (≈ 16 µg/mL), respectively.

For `CC[C@H](C)[C@H](NC(=O)[C@@H]1CCCN1C(=O)[C@H](CCCN=C(N)N)NC(=O)[C@H](CCCN=C(N)N)NC(=O)[C@H](CCCN=C(N)N)NC(=O)[C@@H](N)CCCN=C(N)N)C(=O)N[C@@H](CCCN=C(N)N)C(=O)N[C@@H](CCCN=C(N)N)C(=O)N[C@@H](CCCN=C(N)N)C(=O)N1CCC[C@H]1C(=O)N[C@H](C(=O)N[C@@H](CCCN=C(N)N)C(=O)N1CCC[C@H]1C(=O)N1CCC[C@H]1C(=O)N[C@@H](Cc1ccccc1)C(=O)N[C@@H](Cc1ccc(O)cc1)C(=O)N[C@@H](CCCN=C(N)N)C(=O)O)[C@@H](C)CC` [RRRRPIRRRPIRPPFYR], the MIC against Escherichia coli BW25113 amounted to 16 µM (≈ 37.6 µg/mL).

In the test on Streptococcus mutans, `NCCCC[C@H](NC(=O)[C@H](Cc1c[nH]c2ccccc12)NC(=O)[C@H](CCCN=C(N)N)NC(=O)[C@H](Cc1c[nH]c2ccccc12)NC(=O)[C@H](CCCN=C(N)N)NC(=O)[C@H](Cc1c[nH]c2ccccc12)NC(=O)[C@@H](N)CCCN=C(N)N)C(=O)O` [RWRWRWK] registered an MIC of 27.3 µM (≈ 32 µg/mL).

Regarding `CC[C@H](C)[C@H](NC(=O)[C@@H]1CCCN1C(=O)[C@H](CCCN=C(N)N)NC(=O)[C@H](CCCN=C(N)N)NC(=O)[C@H](Cc1c[nH]c2ccccc12)NC(=O)[C@@H](N)CCCN=C(N)N)C(=O)N[C@@H](CCCN=C(N)N)C(=O)N[C@@H](CCCN=C(N)N)C(=O)N[C@@H](CCCN=C(N)N)C(=O)N1CCC[C@H]1C(=O)N[C@H](C(=O)N[C@@H](CCCN=C(N)N)C(=O)N1CCC[C@H]1C(=O)N1CCC[C@H]1C(=O)N[C@@H](Cc1c[nH]c2ccccc12)C(=O)N[C@@H](Cc1ccc(O)cc1)C(=O)N[C@@H](CCCN=C(N)N)C(=O)O)[C@@H](C)CC` [RWRRPIRRRPIRPPWYR], the MIC in the test on Escherichia coli BW25113 was determined as 8 µM (≈ 19.3 µg/mL).

Regarding `CC(C)C[C@H](NC(=O)[C@H](Cc1cnc[nH]1)NC(=O)[C@H](CCCCN)NC(=O)[C@H](Cc1c[nH]c2ccccc12)NC(=O)[C@H](CCCN=C(N)N)NC(=O)[C@H](CCCCN)NC(=O)[C@H](Cc1ccccc1)NC(=O)[C@H](CC(C)C)NC(=O)[C@@H](N)CCCCN)C(=O)N[C@@H](Cc1ccccc1)C(=O)N[C@@H](CCCN=C(N)N)C(=O)O` [KLFKRWKHLFR], the MIC against Streptococcus mutans is at least 40.1 µM.

For `CC[C@H](C)[C@H](NC(=O)CNC(=O)[C@@H](NC(=O)[C@H](C)NC(=O)[C@@H](NC(=O)[C@H](CCCCN)NC(=O)[C@@H](NC(=O)[C@@H](NC(=O)[C@@H]1CCCN1C(=O)CNC(=O)[C@H](CC(C)C)NC(=O)[C@@H](N)Cc1ccccc1)[C@@H](C)CC)[C@@H](C)CC)[C@@H](C)CC)[C@@H](C)O)C(=O)N[C@@H](CC(C)C)C(=O)N1CCC[C@H]1C(=O)N[C@H](C(=O)N[C@@H](C)C(=O)N[C@H](C(=O)N[C@H]1CSSC[C@@H](C(=O)O)NC(=O)[C@H](CCCCN)NC(=O)[C@H](CCCCN)NC(=O)[C@H](CC(C)C)NC(=O)[C@H](Cc2ccccc2)NC(=O)[C@H](CCCCN)NC1=O)[C@@H](C)CC)[C@@H](C)O` [FLGPIIKIATGILPTAICKFLKKC], the MIC is 1.81 µM (≈ 4.69 µg/mL) with Bacillus subtilis; 1.81 µM (≈ 4.69 µg/mL) in test [8]; 14.5 µM (≈ 37.5 µg/mL) in the test with Escherichia coli ML-35p; 1.45 µM (≈ 3.75 µg/mL) in test [9]; 24.1 µM (≈ 62.5 µg/mL) in [10].

For `CC[C@H](C)[C@H](NC(=O)[C@H](C)NC(=O)[C@H](CCCCN)NC(=O)[C@@H]1CCCN1C(=O)[C@@H](NC(=O)[C@H](CC(C)C)NC(=O)[C@H](CCCCN)NC(=O)[C@H](Cc1ccccc1)NC(=O)[C@H](CC(C)C)NC(=O)[C@@H](N)Cc1ccccc1)[C@@H](C)CC)C(=O)N[C@@H](CCCCN)C(=O)NCC(=O)N[C@@H](CC(C)C)C(=O)N[C@H](C(=O)N[C@@H](CCCCN)C(=O)N[C@@H](C)C(=O)N[C@H](C(=O)N[C@@H](CCCN=C(N)N)C(=O)N[C@@H](CCCCN)C(N)=O)[C@@H](C)CC)C(C)C` [FLFKLIPKAIKGLVKAIRK], the MIC in test [5] was found to be 1.83 µM (≈ 4 µg/mL); in [6] it was 7.33 µM (≈ 16 µg/mL); in test [7], 1.83 µM (≈ 4 µg/mL).

`CC[C@H](C)[C@H](NC(=O)[C@@H]1CCCN1C(=O)[C@@H]1CCCN1C(=O)[C@H](CCCN=C(N)N)NC(=O)[C@H](Cc1ccccc1)NC(=O)[C@@H](N)CCCN=C(N)N)C(=O)N[C@@H](CCCN=C(N)N)C(=O)N[C@@H](CCCN=C(N)N)C(=O)N1CCC[C@H]1C(=O)N1CCC[C@H]1C(=O)N[C@H](C(=O)N[C@@H](CCCN=C(N)N)C(=O)N1CCC[C@H]1C(=O)N1CCC[C@H]1C(=O)N[C@@H](Cc1c[nH]c2ccccc12)C(=O)N[C@@H](Cc1ccc(O)cc1)C(=O)N1CCC[C@H]1C(=O)O)[C@@H](C)CC` [RFRPPIRRPPIRPPWYP] had an MIC in the test on Escherichia coli BW25113 of at least 32 µM.

On to `CSCC[C@H](NC(=O)[C@H](CO)NC(=O)[C@H](CO)NC(=O)[C@H](CC(C)C)NC(=O)[C@H](C)NC(=O)CNC(=O)[C@H](Cc1ccccc1)NC(=O)[C@H](CC(C)C)NC(=O)[C@H](CC(C)C)NC(=O)[C@@H]1CCCN1C(=O)[C@H](Cc1ccccc1)NC(=O)[C@@H](N)Cc1ccccc1)C(=O)N[C@@H](CCSC)C(=O)N1CCC[C@H]1C(=O)N[C@@H](CCCCN)C(=O)N[C@@H](CC(C)C)C(=O)N[C@@H](Cc1ccccc1)C(N)=O` [FFPLLFGALSSMMPKLF], for which the MIC in the test on Bacillus subtilis worked out at 7.71 µM (≈ 15 µg/mL); in test [8] it was 2.57 µM (≈ 5 µg/mL); with Escherichia coli ML-35p, 15.4 µM (≈ 30 µg/mL); in [3] it was 1.28 µM (≈ 2.5 µg/mL); in test [11] it was 1.28 µM (≈ 2.5 µg/mL); in test [12], 1.28 µM (≈ 2.5 µg/mL). Further, the MIC in test [10] came out at 1.28 µM (≈ 2.5 µg/mL).

In the case of `CC[C@H](C)[C@H](NC(=O)[C@@H]1CCCN1C(=O)[C@H](Cc1c[nH]c2ccccc12)NC(=O)[C@H](CCCN=C(N)N)NC(=O)[C@H](Cc1ccccc1)NC(=O)[C@@H](N)CCCN=C(N)N)C(=O)N[C@@H](CCCN=C(N)N)C(=O)N[C@@H](CCCN=C(N)N)C(=O)N1CCC[C@H]1C(=O)N1CCC[C@H]1C(=O)N[C@H](C(=O)N[C@@H](CCCN=C(N)N)C(=O)N1CCC[C@H]1C(=O)N1CCC[C@H]1C(=O)N[C@@H](Cc1ccccc1)C(=O)N[C@@H](Cc1ccc(O)cc1)C(=O)N1CCC[C@H]1C(=O)O)[C@@H](C)CC` [RFRWPIRRPPIRPPFYP], the MIC against Escherichia coli BW25113 is 8 µM (≈ 18 µg/mL).
